Measurements taken from patent publication US12071586B2, “Composition and method for controlling bacteria in formations” (priority 2017, dated 2024).

Columns and labels:
SRB [1] = assay: Hydrogen sulfide inhibition in mock-produced water spiked with SRB, H2S by Draeger tubes; format: cell-based, sulfate-reducing bacteria (SRB); settings: 20 ppm MoO4 alone, mock produced water (Example 6)
Procedure: (§1) Hydrogen sulfide inhibition was tested in mock-produced water approximating water used in hydraulic fracturing operations and was made to a total dissolved solids concentration of 3% with a mixture of instant ocean and NaCl salts. The water was supplemented with nutrients and sulfate to allow SRB to metabolize and create H2S. The water was spiked with SRB and then treated with the various treatment conditions noted below in Table 3 and sealed. Treatment conditions were: Control: No biocide or nitrate.
(§2) H2S was measured at intervals using H2S detecting Draeger tubes. Dissolved H2S was released into the gas phase with the addition of hydrochloric acid so that H2S could be measured with the Draeger tubes to get a complete reading of all H2S produced during the course of the example.
Example 6 was performed in accordance with Example 4 using mock produced water. Samples of the following were mixed with the mock produced water.

SRB [2] = assay: Hydrogen sulfide inhibition in actual produced water (Eagle Ford shale, diluted to 3%), H2S by Draeger tubes; format: cell-based, sulfate-reducing bacteria (SRB); settings: 20 ppm MoO4 alone, actual produced water (Example 7)
Procedure: as §1, §2
Samples were prepared in accordance with Example 4, except that actual produced water sourced from the Eagle Ford shale that was diluted to 3% using deionized water was used in the samples.
Example 7 was performed in accordance with Example 6 using actual produced water. Samples of the following were mixed with the […].

SMILES: [O]=[Mo](=[O])([O-])[O-] [MoO4, molybdate]
- Total H2S (SRB [1]): 1974 ppm
- Total H2S (SRB [2]): 3188 ppm
